Laboratory results reported in patent publication US7964624B1, “Inhibitors of serine proteases” (priority 2005, dated 2011).

The compounds below were run against T1, HCV NS3 protease domain (Hepatitis C virus genotype 1b, UniProt Q9WMX2) (assay: biochemical). Settings: Enzyme Assay 1 (HCV NS3 Protease Domain Peptide Cleavage Assay) activity, apparent Ki class.
T1 construct: The first 181 amino acids of NS3 (residues 1027-1207 of the viral polyprotein); hexa-histidine (C); made in house; host or cells: E. coli BL21/DE3 pLysS
T1 sequence (Q9WMX2 1027-1207, other chains not shown): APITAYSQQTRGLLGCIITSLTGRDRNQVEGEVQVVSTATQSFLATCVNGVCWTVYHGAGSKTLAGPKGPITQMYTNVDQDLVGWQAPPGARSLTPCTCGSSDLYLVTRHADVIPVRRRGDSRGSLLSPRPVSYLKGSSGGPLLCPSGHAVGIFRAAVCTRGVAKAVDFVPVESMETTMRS

Row | Structure (SMILES) | Ki
1 | CCC[C@H](NC(=O)[C@@H]1C[C@]2(CC(c3ccc(Cl)c(C)c3)=NO2)CN1C(=O)[C@@H](NC(=O)CC1CCOCC1)C(C)(C)C)C(=O)C(=O)NC1CC1 [Compound 490] | 100 to 500 nM
2 | CCC[C@H](NC(=O)[C@@H]1C[C@]2(CC(c3cccc(Cl)c3)=NO2)CN1C(=O)[C@@H](NC(=O)OCc1ccccn1)C(C)(C)C)C(=O)C(=O)NC1CC1 [Compound 378] | 100 to 500 nM
3 | CCC[C@H](NC(=O)[C@@H]1C[C@]2(CC(c3cccc(C(F)(F)F)c3)=NO2)CN1C(=O)[C@@H](NC(=O)O[C@H]1CCOC1)C(C)(C)C)C(=O)C(=O)NC1CC1 [Compound 560] | 100 to 500 nM
4 | CCC[C@H](NC(=O)[C@@H]1C[C@]2(CC(c3cccc(OC(F)(F)F)c3)=NO2)CN1C(=O)[C@@H](NC(=O)O[C@H]1CCOC1)C(C)(C)C)C(=O)C(=O)NC1CC1 [Compound 244] | 100 to 500 nM
5 | CCC[C@H](NC(=O)[C@@H]1C[C@]2(CC(c3cccc(Cl)c3)=NO2)CN1C(=O)Oc1ccc([N+](=O)[O-])cc1)C(=O)C(=O)NC1CC1 [Compound 262] | > 500 nM
6 | CCC[C@H](NC(=O)[C@@H]1C[C@]2(CC(c3cccc(Cl)c3)=NO2)CN1C(=O)[C@@H](NC(=O)[C@@H]1CCC(=O)N1Cc1cccc(C)c1)C(C)(C)C)C(=O)C(=O)NC1CC1 [Compound 518] | < 100 nM
7 | CCC[C@H](NC(=O)[C@@H]1C[C@]2(CC(c3cccc(Cl)c3)=NO2)CN1C(=O)[C@@H](NC(=O)Cc1ccc(C)c(F)c1)C(C)(C)C)C(=O)C(=O)NC1CC1 [Compound 102] | 100 to 500 nM
8 | CCC[C@H](NC(=O)[C@@H]1C[C@]2(CC(c3ccc(Cl)c(C)c3)=NO2)CN1C(=O)[C@@H](NC(=O)O[C@H]1CCOC1)C(C)(C)C)C(=O)C(=O)NC1CC1 [Compound 109] | < 100 nM
9 | CCC[C@H](NC(=O)[C@@H]1C[C@]2(CC(c3ccc(F)c(Cl)c3)=NO2)CN1C(=O)[C@@H](NC(=O)CC1CCOCC1)C(C)(C)C)C(=O)C(=O)NC1CC1 [Compound 270] | 100 to 500 nM
10 | CCC[C@H](NC(=O)[C@@H]1C[C@]2(CC(c3cccc(Cl)c3)=NO2)CN1C(=O)[C@@H](NC(=O)CC1CCCCC1)C(C)(C)C)C(=O)C(=O)NCC [Compound 140] | 100 to 500 nM
11 | CCC[C@H](NC(=O)[C@@H]1C[C@]2(CC(c3ccc(F)c(C(F)(F)F)c3)=NO2)CN1C(=O)[C@@H](NC(=O)O[C@H]1CCOC1)C(C)(C)C)C(=O)C(=O)NC1CC1 [Compound 545] | 100 to 500 nM
12 | C=CCOC(=O)N[C@H](C(=O)N1C[C@@]2(CC(c3ccc(F)cc3)=NO2)C[C@H]1C(=O)N[C@@H](CCC)C(=O)C(=O)NC1CC1)C(C)(C)C [Compound 154] | 100 to 500 nM
13 | CCC[C@H](NC(=O)[C@@H]1C[C@]2(CC(c3cccc(Cl)c3)=NO2)CN1C(=O)[C@@H](NC(=O)CCn1ncc2ccccc21)C(C)(C)C)C(=O)C(=O)NC1CC1 [Compound 528] | 100 to 500 nM
14 | CCC[C@H](NC(=O)[C@@H]1C[C@]2(CC(c3cc(C(F)(F)F)cc(C(F)(F)F)c3)=NO2)CN1C(=O)[C@@H](NC(=O)O[C@H]1CCOC1)C(C)(C)C)C(=O)C(=O)NC1CC1 [Compound 330] | 100 to 500 nM
15 | CCC[C@H](NC(=O)[C@@H]1C[C@]2(CC(c3ccc4c(c3)OCO4)=NO2)CN1C(=O)[C@@H](NC(C)=O)C(C)(C)C)C(=O)C(=O)NC1CC1 [Compound 570] | 100 to 500 nM
16 | CCC[C@H](NC(=O)[C@@H]1C[C@@]2(CC(c3ccccc3)=NO2)CN1C(=O)c1ccc[nH]1)C(=O)C(=O)NC1CC1 [Compound 80] | > 500 nM
17 | CCC[C@H](NC(=O)[C@@H]1C[C@]2(CC(c3cccc(Cl)c3)=NO2)CN1C(=O)[C@@H](NC(=O)N[C@H](COC)C(C)(C)C)C(C)(C)C)C(=O)C(=O)NC1CC1 [Compound 477] | < 100 nM
18 | CCC[C@H](NC(=O)[C@@H]1C[C@]2(CC(c3ccc(OC)cc3OC)=NO2)CN1C(=O)[C@@H](NC(=O)OCc1ccccc1)C(C)(C)C)C(=O)C(=O)NC1CC1 [Compound 335] | > 500 nM
19 | CCC[C@H](NC(=O)[C@@H]1C[C@]2(CC(c3ccc(Cl)c(Cl)c3)=NO2)CN1C(=O)[C@@H](NC(=O)O[C@H]1CCOC1)C(C)(C)C)C(=O)C(=O)NC1CC1 [Compound 32] | 100 to 500 nM
20 | CCC[C@H](NC(=O)[C@@H]1C[C@]2(CC(c3c(C)oc4ccccc34)=NO2)CN1C(=O)[C@@H](NC(=O)CC1CCCCC1)C(C)(C)C)C(=O)C(=O)NC1CC1 [Compound 230] | 100 to 500 nM
21 | CCC[C@H](NC(=O)[C@@H]1C[C@]2(CC(c3ccc(C(=O)O)cc3)=NO2)CN1C(=O)[C@@H](NC(=O)O[C@H]1CCOC1)C(C)(C)C)C(=O)C(=O)NC1CC1 [Compound 543] | > 500 nM
22 | CCC[C@H](NC(=O)[C@@H]1C[C@]2(CC(c3cccc(Cl)c3)=NO2)CN1C(=O)[C@@H](NC(=O)Nc1cccnc1)C(C)(C)C)C(=O)C(=O)NC1CC1 [Compound 576] | 100 to 500 nM
23 | CCC[C@H](NC(=O)[C@@H]1C[C@]2(CC(c3cccc(Cl)c3)=NO2)CN1C(=O)[C@@H](NC(=O)NCc1cccnc1)C(C)(C)C)C(=O)C(=O)NC1CC1 [Compound 497] | 100 to 500 nM
24 | CCC[C@H](NC(=O)[C@@H]1C[C@]2(CC(c3ccccc3)=NO2)CN1C(=O)OCC1c2ccccc2-c2ccccc21)C(=O)C(=O)NC1CC1 [Compound 514] | > 500 nM

Row | Structure (SMILES) | Ki
25 | CCC[C@H](NC(=O)[C@@H]1C[C@]2(CC(c3cccc(Cl)c3)=NO2)CN1C(=O)[C@@H](NC(=O)Cc1cccc(OC)c1)C(C)(C)C)C(=O)C(=O)NC1CC1 [Compound 287] | 100 to 500 nM
26 | CCC[C@H](NC(=O)[C@@H]1C[C@]2(CC(c3cccc(Cl)c3)=NO2)CN1C(=O)[C@@H](NC(=O)CC(C)(C)C)C(C)(C)C)C(=O)C(=O)NC1CC1 [Compound 319] | 100 to 500 nM
27 | CCC[C@H](NC(=O)[C@@H]1C[C@]2(CC(c3ccc(C(F)(F)F)cc3)=NO2)CN1C(=O)O[C@H]1CCOC1)C(=O)C(=O)NC1CC1 [Compound 240] | > 500 nM
28 | CCC[C@H](NC(=O)[C@@H]1C[C@]2(CC(c3cccc(Cl)c3)=NO2)CN1C(=O)[C@@H](NC(=O)OCc1cccnc1)C(C)(C)C)C(=O)C(=O)NC1CC1 [Compound 563] | 100 to 500 nM
29 | C=C[C@@H]1C[C@]1(NC(=O)[C@@H]1C[C@]2(CC(c3cccc(Cl)c3)=NO2)CN1C(=O)[C@@H](NC(=O)CC1CCOCC1)C(C)(C)C)C(=O)NS(=O)(=O)C1CC1 [Compound 359] | 100 to 500 nM
30 | CCC[C@H](NC(=O)[C@@H]1C[C@]2(CC(c3cncc(Br)c3)=NO2)CN1C(=O)[C@@H](NC(=O)CC1CCCCC1)C(C)(C)C)C(=O)C(=O)NC1CC1 [Compound 41] | < 100 nM
31 | CCC[C@H](NC(=O)[C@@H]1C[C@]2(CC(c3cccc(Cl)c3)=NO2)CN1C(=O)[C@@H](NC(=O)NCc1cccc(F)c1)C(C)(C)C)C(=O)C(=O)NC1CC1 [Compound 122] | 100 to 500 nM
32 | CCC[C@H](NC(=O)[C@@H]1C[C@]2(CC(C(=O)c3ccc(Cl)cc3)=NO2)CN1C(=O)[C@@H](NC(=O)O[C@H]1CCOC1)C(C)(C)C)C(=O)C(=O)NC1CC1 [Compound 364] | > 500 nM
33 | CCC[C@H](NC(=O)[C@@H]1C[C@]2(CC(c3cccc(Cl)c3)=NO2)CN1C(=O)[C@@H](NC(=O)OC1CCCOC1)C(C)(C)C)C(=O)C(=O)NC1CC1 (stereo partly drawn) [Compound 515] | 100 to 500 nM
34 | CCC[C@H](NC(=O)[C@@H]1C[C@]2(CC(c3cccc(Cl)c3)=NO2)CN1C(=O)[C@@H](NC(=O)OCCc1ccsc1)C(C)(C)C)C(=O)C(=O)NC1CC1 [Compound 159] | 100 to 500 nM
35 | CC(C)(C)[C@H](NC(=O)CC1CCCCC1)C(=O)N1C[C@@]2(CC(c3cccc(Cl)c3)=NO2)C[C@H]1C(=O)NC(CC1CCC1)C(=O)C(N)=O (stereo partly drawn) [Compound 217] | < 100 nM
36 | CCC[C@H](NC(=O)[C@@H]1C[C@]2(CC(c3cccc(Cl)c3)=NO2)CN1C(=O)[C@@H](NC(=O)CCc1ccc(F)cc1)C(C)(C)C)C(=O)C(=O)NC1CC1 [Compound 7] | > 500 nM
37 | CCC[C@H](NC(=O)[C@@H]1C[C@]2(CC(c3cccc(Cl)c3)=NO2)CN1C(=O)[C@@H](NC(=O)OCC1CCOC1)C(C)(C)C)C(=O)C(=O)NC1CC1 (stereo partly drawn) [Compound 152] | 100 to 500 nM
38 | CCC[C@H](NC(=O)[C@@H]1C[C@]2(CC(c3cccc(Cl)c3)=NO2)CN1C(=O)c1cc2cc(OC)c(OC)cc2[nH]1)C(=O)C(=O)NC1CC1 [Compound 157] | > 500 nM
39 | CCC[C@H](NC(=O)[C@@H]1C[C@]2(CC(c3cccc(Cl)c3)=NO2)CN1C(=O)[C@@H](NC(=O)OCC1CCCCO1)C(C)(C)C)C(=O)C(=O)NC1CC1 (stereo partly drawn) [Compound 308] | 100 to 500 nM
40 | CCC[C@H](NC(=O)[C@@H]1C[C@]2(CC(c3cccc(Cl)c3)=NO2)CN1C(=O)[C@@H](NC(=O)CSc1cccc2cccnc12)C(C)(C)C)C(=O)C(=O)NC1CC1 [Compound 454] | 100 to 500 nM
41 | CCC[C@H](NC(=O)[C@@H]1C[C@]2(CC(c3cccc(Cl)c3)=NO2)CN1C(=O)[C@@H](NC(=O)[C@H]1COc2ccccc2O1)C(C)(C)C)C(=O)C(=O)NC1CC1 [Compound 71] | > 500 nM
42 | CCC[C@H](NC(=O)[C@@H]1C[C@]2(CC(c3cccc(Cl)c3)=NO2)CN1C(=O)[C@@H](NC(=O)CN1CCOCC1)C(C)(C)C)C(=O)C(=O)NC1CC1 [Compound 81] | > 500 nM
43 | CCC[C@H](NC(=O)[C@@H]1C[C@]2(CC(c3ccc(F)c(C)c3)=NO2)CN1C(=O)O[C@H]1CCOC1)C(=O)C(=O)NC1CC1 [Compound 413] | > 500 nM
44 | CCC[C@H](NC(=O)[C@@H]1C[C@]2(CC(c3ccccc3)=NO2)CN1C(=O)CC1CCN(Cc2c(Cl)cccc2Cl)CC1)C(=O)C(=O)NC1CC1 [Compound 53] | > 500 nM
45 | CCC[C@H](NC(=O)[C@@H]1C[C@]2(CC(c3cccc(Cl)c3)=NO2)CN1C(=O)[C@@H](NC(=O)CC(C)(O)C(F)(F)F)C(C)(C)C)C(=O)C(=O)NC1CC1 (stereo partly drawn) [Compound 475] | 100 to 500 nM
46 | CCC[C@H](NC(=O)[C@@H]1C[C@]2(CC(c3cccc(Cl)c3)=NO2)CN1C(=O)[C@@H](NC(=O)C1CC=CCC1C(=O)OC)C(C)(C)C)C(=O)C(=O)NC1CC1 (stereo partly drawn) [Compound 557] | 100 to 500 nM
47 | CCC[C@H](NC(=O)[C@@H]1C[C@]2(CC(c3cccc(Cl)c3)=NO2)CN1C(=O)[C@@H](NC(=O)Nc1ccc(N2C(=O)C=CC2=O)cc1)C(C)(C)C)C(=O)C(=O)NC1CC1 [Compound 128] | 100 to 500 nM
48 | CCC[C@H](NC(=O)[C@@H]1C[C@]2(CC(c3cccc(Cl)c3)=NO2)CN1C(=O)[C@@H](NC(=O)c1ccnn1-c1ccccc1)C(C)(C)C)C(=O)C(=O)NC1CC1 [Compound 571] | 100 to 500 nM
